Read-outs that look alike come from different tables or passages of the source.
Assays:
mice = details: mouse, in vivo
[1] = tested on: ventricular fibrillation caused by inhalation of chloroform; experiment: Inhibition of ventricular fibrillation caused by inhalation of chloroform (method of Lawson); assay type: in vivo; details: mice, 10 min before chloroform
Procedure: For example, in mice, the compounds have an inhibiting effect on ventricular fibrillation caused by inhalation of chloroform. The effect of the compounds on ventricular fibrillation in mice caused by inhalation of chloroform leading to rapid cessation of breathing is determined by the method of Lawson (J. Pharmacol. Exp. Ther. 160, 22-23).
In this experimental procedure, the minimum toxic dose can also be determined at the same time. The test substance, dissolved in 0.9% strength sodium chloride solution, is administered intraperitoneally to female mice of 17-24 g body weight. The animals are kept individually in glass beakers, where they are observed for possible toxic symptoms. Ten minutes after administration of the test substance, the animals are transferred to covered 300 ml glass beakers containing a cottonwool swab soaked with about 20 ml of chloroform. As soon as breathing begins to stop, the heart is exposed and the ventricular rhythm and rate are observed visually. The percentage of animals protected from ventricular fibrillation by the dose administered is given.
in the test described above, the compounds of formula I display antiarrhythmic actions in a dose range from 0.1 to 100 mg/kg.
The Example numbers given for the compounds of formula I relate to the preparation Exaples below.

[2] = tested on: isolated left auricle of female guinea pigs; experiment: Functional refractory period prolonging and contraction force reducing action, double-stimulation method of Govier; details: isolated atrium from guinea pigs; for EC (125%) / IC25: Cavia porcellus; for EC (125%): 0.3 h, 18 minutes after administration, read-out: FRP: concentration at which the functional refractory period is increased to 125%; for IC25: read-out: Force: concentration at which the contraction force is reduced to 75% of the starting value; for Force/FRP quotient of concentrations: indication of therapeutic range
Description: The favourable relationship between the functional refractory period prolonging action (FRP) and the contraction force reducing action (force) of the compounds can also be shown on the isolated left auricle of female guinea pigs of 300-400 g body weight by the double-stimulation method of Govier [J. Pharmakol.

Acute toxicity = details: in vivo; for LD50: mouse
Description: This gives a therapeutic range (=quotient LD50 .sbsb.mouse /EDmin) of 8-17.

[3] = tested on: disorders in cardiac rhythm induced by aconitine infusion; experiment: Inhibition of disorders in cardiac rhythm induced by aconitine infusion (method of Raschak); assay type: in vivo, rats; details: Rattus norvegicus, iv
Procedure: The compounds also show an inhibiting action on disorders in cardiac rhythm induced by aconitine infusion [extrasystoles (ES), ventricular tachycardia (VT) and ventricular fibrillation (VF)] in rats in the experimental method of Raschak (Arzneimittelforsch. 25 (1975) 639-641). Thus, for example, the minimum effective doses of 2-[3-(N,N-diethylamino)-2-hydroxypropylaminocarbonyl]-3-methoxy-1-phenylindole on intravenous administration 5 minutes before the start of aconitine infusion are as follows: […]

Row | Structure (SMILES) | Minimum toxic dose (mice; ip) | Minimum toxic dose (mice; po) | % of protected animals ([1]; dose 100 mg/kg ip) | other results
1 | CCN(CC)CCCCNC(=O)c1c(OC)c2ccccc2n1-c1ccccc1 [Example 22] | 300 mg/kg | 50 mg/kg | – | % of protected animals ([1]; dose 10 mg/kg ip): 66.7%
2 | CN(C)CCNC(=O)c1c(O)c2ccccc2n1-c1ccc(Cl)cc1 [Example 2, 2-[2-(N,N-Dimethylamino)-ethylaminocarbonyl]-3-hydroxy-1-(4'-chlorophenyl)-indole] | ≥ 100 mg/kg | ≥ 300 mg/kg | 100% | –
3 | Cc1cccc(-n2c(C(=O)NCCN(C)C)c(O)c3ccccc32)c1C [Example 25] | ≥ 100 mg/kg | ≥ 300 mg/kg | 66.7% | –
4 | COc1c(C(=O)NCCN(C)C)n(-c2ccc(Cl)cc2)c2ccccc12 [Example 15] | ≥ 100 mg/kg | ≥ 300 mg/kg | 100% | –
5 | CCN(CC)CCCNC(=O)c1c(OC)c2ccccc2n1-c1ccccc1 [Example 20] | 300 mg/kg | 50 mg/kg | – | % of protected animals ([1]; dose 10 mg/kg ip): 100%; EC (125%) [2]: 0.66 µM; IC25 [2]: 3.57 µM; Force/FRP quotient of concentrations [2]: 5.4
6 | COc1c(C(=O)NCCN(C)C)n(-c2ccccc2)c2ccc(Br)cc12 [Example 30] | ≥ 300 mg/kg | 200 mg/kg | – | % of protected animals ([1]; dose 50 mg/kg ip): 33.3%
7 | CCN(CC)CC(O)CNC(=O)c1c(OC)c2ccccc2n1-c1ccccc1 (stereo not shown) [Example 1, 2-[3-(N,N-Diethylamino)-2-hydroxypropylaminocarbonyl]-3-methoxy-1-phenylindole] | 300 mg/kg | 100 mg/kg | – | LD50 (Acute toxicity; ip, administered intraperitoneally): 164 µmol/kg; LD50 (Acute toxicity; iv, administered intravenously): 37.3 µmol/kg; selectivity ratio (Acute toxicity; LD50 mouse over minimum effective dose in aconitine test, read-out: therapeutic range (=quotient LD50 mouse/EDmin)): 8 to 17; % of protected animals ([1]; dose 25 mg/kg ip): 100%; minimal effective dose ([3]; read-out: Minimum effective inhibiting dose, extrasystoles): 2.15 µmol/kg; minimal effective dose ([3]; read-out: Minimum effective inhibiting dose, heart rate): > 12 µmol/kg; minimal effective dose ([3]; read-out: Minimum effective inhibiting dose, ventricular fibrillation): 4.64 µmol/kg; minimal effective dose ([3]; read-out: Minimum effective inhibiting dose, ventricular tachycardia): 2.15 µmol/kg; EC (125%) [2]: 3.6 µM; IC25 [2]: 6.3 µM; Force/FRP quotient of concentrations [2]: 1.8

— patent US4803198A, “1-Phenyl-2-aminocarbonylindole compounds, preparation thereof and pharmaceutical compositions containing them” (Kali-Chemie Pharma GmbH, priority 1981, dated 1989)
